Non-standard residues stand in square brackets, D forms with d. Residues, ends and D or L forms follow the SMILES beside them. *: point of attachment. Nle = CCCC[C@H](N)C(=O)O; For = O=C*
How the values were obtained:
W190/N192 FPR [1] = biological target: T1, W190/N192 FPR (Homo sapiens, UniProt P21462, R190W); experiment: biochemical; assay type: binding
R190/K192 FPR [2] = biological target: T2, R190/K192 FPR (Homo sapiens, UniProt P21462, N192K); experiment: biochemical; assay type: biochemical
R190/K192 FPR [3] = biological target: T2, R190/K192 FPR; assay type: cell-based
W190/N192 FPR [4] = biological target: T1, W190/N192 FPR; assay type: cell-based
R190/N192 FPR [5] = biological target: T3, R190/N192 FPR (Homo sapiens, UniProt P21462); experiment: biochemical; assay type: binding
R190/K192 FPR [6] = biological target: T2, R190/K192 FPR; assay type: cell-based; remark: listed apart in the source
R190/K192 FPR [7] = biological target: T2, R190/K192 FPR; experiment: biochemical; assay type: binding
R190/N192 FPR [8] = biological target: T3, R190/N192 FPR; experiment: biochemical; assay type: biochemical
R190/N192 FPR [9] = biological target: T3, R190/N192 FPR; assay type: cell-based
W190/N192 FPR [10] = biological target: T1, W190/N192 FPR; assay type: cell-based; remark: listed apart in the source
W190/N192 FPR [11] = biological target: T1, W190/N192 FPR; experiment: biochemical; assay type: biochemical
R190/N192 FPR [12] = biological target: T3, R190/N192 FPR; assay type: cell-based; remark: listed apart in the source
FIV = details: cited from earlier work
FPR = details: cited from earlier work
[13] = biological target: Coronavirus 229E spike 7mer (Human coronavirus 229E); experiment: flow
[14] = biological target: Coronavirus 229E spike 5mer (Human coronavirus 229E); experiment: flow
[15] = biological target: HIV-1 gp41 12mer (Human immunodeficiency virus 1); experiment: flow
[16] = biological target: Coronavirus 229E spike 12mer (Human coronavirus 229E); experiment: flow
MMWLL = experiment: flow
[17] = biological target: Coronavirus 229E spike 36mer (Human coronavirus 229E); experiment: flow
[18] = biological target: SARS coronavirus spike 12mer (SARS coronavirus); experiment: flow
[19] = biological target: HKU-1 coronavirus spike peptide (Human coronavirus HKU1); experiment: flow
[20] = biological target: Coronavirus OC43 spike 36mer (Human coronavirus OC43); experiment: flow
reverse 229E peptide = experiment: flow
[21] = biological target: ETYIK-(Alexa Fluor)WPWWVWL (Human coronavirus 229E); experiment: flow
[22] = biological target: HIV-2 envelope 37mer (Human immunodeficiency virus 2); experiment: flow
[23] = biological target: Coronavirus 229E spike N-terminal 7mer (Human coronavirus 229E); experiment: flow

In the case of CC[C@H](C)[C@H](NC(=O)[C@H](Cc1ccc(O)cc1)NC(=O)[C@@H](NC(=O)[C@@H](N)CCC(=O)O)[C@@H](C)O)C(=O)N[C@@H](CCCCN)C(=O)N[C@@H](Cc1c[nH]c2ccccc12)C(=O)N1CCC[C@H]1C(=O)N[C@@H](Cc1c[nH]c2ccccc12)C(=O)N[C@@H](Cc1c[nH]c2ccccc12)C(=O)N[C@H](C(=O)N[C@@H](Cc1c[nH]c2ccccc12)C(=O)N[C@@H](CC(C)C)C(=O)O)C(C)C, the Ki (W190/N192 FPR [1]; Ki (nM ± SEM) for binding of peptides to W190/N192 FPR) is reported as 270 ± 10 nM, the EC50 (R190/K192 FPR [2]) is reported as 1600 ± 440 nM and the “stimulation of GTPγS binding” value (R190/K192 FPR [2]) is reported as “neither ETYIKWPWWVWL nor MYVKWPWYVWL had any effect”. The “inhibition of arrestin translocation in response to formyl-Nle–Leu–Phe” value (“inhibition of arrestin translocation” below) (R190/K192 FPR [3]) was 20 ± 9%, the β-arrestin translocation (R190/K192 FPR [3]) was “did not cause translocation” and the “inhibition of arrestin translocation” value (W190/N192 FPR [4]) was 77 ± 10%. For the same molecule, the β-arrestin translocation (W190/N192 FPR [4]) was “did not cause translocation”, the Ki (R190/N192 FPR [5]) was 533 ± 30 nM and the “inhibition of receptor downregulation in response to formyl-Nle–Leu–Phe” value (“inhibition of receptor downregulation” below) (R190/K192 FPR [6]) was 20 ± 2%. The surface receptor downregulation (R190/K192 FPR [6]) was “did not cause surface receptor downregulation”, the Ki (R190/K192 FPR [7]) was 370 ± 30 nM and the EC50 (R190/N192 FPR [8]) was 1600 ± 400 nM. The “stimulation of GTPγS binding” value (R190/N192 FPR [8]) was “neither ETYIKWPWWVWL nor MYVKWPWYVWL had any effect”, the “inhibition of arrestin translocation” value (R190/N192 FPR [9]) was 18 ± 4% and the β-arrestin translocation (R190/N192 FPR [9]) was “did not cause translocation”. For the same molecule, the “inhibition of receptor downregulation” value (W190/N192 FPR [10]) was 64 ± 6%, the surface receptor downregulation (W190/N192 FPR [10]) was “did not cause surface receptor downregulation” and the EC50 (W190/N192 FPR [11]) was 300 ± 120 nM. The “stimulation of GTPγS binding” value (W190/N192 FPR [11]) was “neither ETYIKWPWWVWL nor MYVKWPWYVWL had any effect”, the “inhibition of receptor downregulation” value (R190/N192 FPR [12]) was 16 ± 2% and the surface receptor downregulation (R190/N192 FPR [12]) was “did not cause surface receptor downregulation”.

With CCCC[C@H](NC=O)C(=O)N[C@@H](CC(C)C)C(=O)N[C@@H](Cc1ccccc1)C(=O)O [Formyl-NleLeuPhe, Formyl-Nle–Leu–Phe, reference compound] (For-[Nle]-Leu-Phe-OH) the “fold reduction of affinity on substitution of R190 with W190” value (W190/N192 FPR [1]) was 2.5 fold, the “stimulation of GTPγS binding” value (R190/K192 FPR [2]) was “stimulated GTPγS binding” and the β-arrestin translocation (R190/K192 FPR [3]) was “caused β-arrestin translocation”. The β-arrestin translocation (W190/N192 FPR [4]) was “caused β-arrestin translocation”, the surface receptor downregulation (R190/K192 FPR [6]) was 85 ± 0.4% and the “fold higher affinity for R190/K192 than for W190/N192” value (R190/K192 FPR [7]) was about 3 fold. For the same molecule, the “stimulation of GTPγS binding” value (R190/N192 FPR [8]) was “stimulated GTPγS binding”, the β-arrestin translocation (R190/N192 FPR [9]) was “caused β-arrestin translocation” and the surface receptor downregulation (W190/N192 FPR [10]) was 76 ± 3%. For the same molecule, the “stimulation of GTPγS binding” value (W190/N192 FPR [11]) was “stimulated GTPγS binding” and the surface receptor downregulation (R190/N192 FPR [12]) was 76 ± 1.2%.

For QLQKWEDWVRWI, the “inhibition of FIV infection (potency)” value (FIV) is given as “low nanomolar”.

In the case of WRWWWW, the “effect on FPR” value (FPR) is listed as “did not affect FPR”.

B1: Formyl peptide receptor (FPR R190/N192), P21462 (protein)
chain: METNSSLPTNISGGTPAVSAGYLFLDIITYLVFAVTFVLGVLGNGLVIWVAGFRMTHTVTTISYLNLAVADFCFTSTLPFFMVRKAMGGHWPFGWFLCKFVFTIVDINLFGSVFLIALIALDRCVCVLHPVWTQNHRTVSLAKKVIIGPWVMALLLTLPVIIRVTTVPGKTGTVACTFNFSPWTNDPKERINVAVAMLTVRGIIRFIIGFSAPMSIVAVSYGLIATKIHKQGLIKSSRPLRVLSFVAAAFFLCWSPYQVVALIATVRIRELLQGMYKEIGIAVDVTSALAFFNSCLNPMLYVFMGQDFRERLIHALPASLERALTEDSTQTSDTATNSTLPSAEVELQAK
B1 showed a Ki [13] of 600 nM, a Ki [14] of 1000 nM and a Ki [15] of 1200 nM. The Ki [16] was 533 nM, the Ki (MMWLL) was 330 nM and the Ki [17] was 10000 nM. For the same molecule, the Ki [18] was 2050 nM, the Ki [19] was 783 nM and the Ki [20] was 850 nM. It also gave a Ki (reverse 229E peptide) of over 50000 nM, a Kd [21] of 121 nM and a Ki [22] of 15700 nM. It also gave a Ki [23] of over 260000 nM.
